# Measured values: US20220064127A1, “PLATELET AGGREGATION INHIBITOR, PREPARATION AND USES THEREOF” (SHENYANG HINEWY PHARMACEUTICAL TECHNOLOGY CO., LTD., priority 2020, published 2022)
# Columns and labels:
# [1] = system: ADP-Induced Platelet Aggregation; test: Inhibition of ADP-induced platelet aggregation in rabbit platelet-rich plasma (microplate method); type: cell-based; settings: Oryctolagus cuniculus, Platelet, rabbit PRP, inducer ADP; for IC50: absorbance 655 nm, read-out: IC50 (Mean ± SE), ADP-induced platelet aggregation; for inhibition at 30 µM: read-out: Inhibition rate of target compounds on platelet aggregation at 30 μM
# Experimental: Example 62 Investigation on Inhibition of ADP-Induced Platelet Aggregation in Rabbit
# A blood sample was collected from ear vein of a healthy male rabbit, added with 3.8% sodium citrate for anticoagulation and then centrifuged at 800 r/min for 10 min to prepare platelet-rich plasma (PRP) and at 3,000 r/min for 10 min to prepare platelet-poor plasma (PPP). The investigation on the plasma should be performed within 0.5-3 h after the preparation.
# 2. Determination of Platelet Aggregation by Microplate Method
# The drugs to be tested were weighed and added with an appropriate amount of DMSO to prepare a series of 10 mM stock solutions, which were respectively diluted to prepare 10× stock solutions with normal saline for further use.
# Several wells of a microplate were selected as test wells, which were added with 135 μL of PRP and then respectively added with 15 μL of the 10× stock solutions. A well in which 135 μL of PRP and 15 μL of normal saline were added was used as the vehicle control, and a well in which 135 μL of PPP and 15 μL of normal saline were added was used as the blank control. Duplicate wells were set for each test well. The plate was shaken, incubated at 37° C. for 5 min, and then measured for A0 at 655 nm. Subsequently, the microplate was added with 15 μL of an inducer […] (ADP) working solution (25 μmol/L) in each well, incubated at 37° C. under shaking and measured at 655 nm for A1, where the incubation time was determined according to the time in the pre-experiment when the maximum aggregation appeared. The platelet aggregation rate (AR) and platelet aggregation inhibition rate (AIR) were calculated according to the following formulas:
# AR=(1−ARtest sample/ARcontrol)
# [2] = system: carotid artery thrombus induced by ferric chloride; test: Effect of intragastric administration on FeCl3-induced carotid arterial thrombosis in male SD rats; type: in vivo, male Sprague Dawley (SD) rats; settings: for Wet weight of thrombus: daily for one week, male SD rats, 20% FeCl3
# Experimental: Example 63 Effect of Intragastric Administration of Compound LY-26y on Arterial Thrombosis in Male Sprague Dawley (SD) Rats
# 1. Experimental animals: 50 male SD rats, 260-320 g (n=10).
# 2. Main reagents: ferric chloride, urethane, 0.5% CMC-Na, 0.9% NaCl.
# The 50 male SD rats were randomly and averagely divided into five groups, respectively model group, low-dose LY-26y group (5 mg/kg), medium-dose LY-26y group (10 mg/kg), high-dose LY-26y group (20 mg/kg) and positive control group (10 mg/kg ticagrelor). After experiencing one-week adaptation, the rats in the experimental groups were treated by intragastric administration of LY-26y by at 9 am every day, and the model group was treated with 0.5% CMC-Na solution. After continuously treated for one week, the rats were anesthetized by intraperitoneal injection of 20% urethane ([…]) 8 min after the last administration. Then the anesthetized rats were placed on an insulation plate (to maintain body temperature) in a supine position, and a straight incision was made on the midline of the neck to expose the right common carotid artery. A plastic film (1.5×1.0 cm^2) was placed under the artery to protect the surrounding tissues. The filter paper was cut into a size of 1.0×0.8 cm^2, soaked with a 20% FeCl3 solution and then used to coat the exposed artery for 30 min to induce […] thrombosis. After 2 h of the administration, a 1.5-cm […] carotid artery was collected and weighed, and then the blood vessel was cut to remove the thrombus therein to measure the weight of the blood vessel wall, where the weight difference was the weight of thrombus.
SMILES,IC50 [1] [µM],further results
"CCOC(=O)c1c(C)nc(-c2cccc(C#N)c2)n1OCc1ccc([N+](=O)[O-])cc1 [LY-26v, ethyl 2-(3-cyanophenyl)-4-methyl-1-[(4-nitrobenzyl)oxy]-1H-imidazole-5-carboxylate]",8.75 ± 0.159,
"CCOC(=O)c1c(C)nc(-c2cccc(C#N)c2)n1OCc1cccc(C#N)c1 [LY-26x, ethyl 1-[(3-cyanobenzyl)oxy]-2-(3-cyanophenyl)-4-methyl-1H-imidazole-5-carboxylate]",,inhibition at 30 µM [1]: 3.21%
"CCOC(=O)c1c(C)nc(-c2cccc(C#N)c2)n1OCc1ccc(C#N)cc1 [LY-26y, ethyl 1-[(4-cyanobenzyl)oxy]-2-(3-cyanophenyl)-4-methyl-1H-imidazole-5-carboxylate]",4.237 ± 0.0156,"Wet weight of thrombus ([2]; 5 mg/kg intragastric): 6.38 ± 0.18 mg; Wet weight of thrombus ([2]; 10 mg/kg intragastric): 4.89 ± 0.33 mg; Wet weight of thrombus ([2]; 20 mg/kg intragastric): 4.39 ± 0.26 mg; Effect on weight of the FeCl3-induced arterial thrombus in rats ([2]; intragastric administration, in words): significantly reduced"
"C=CCOn1c(-c2cccc(C#N)c2)nc(C)c1C(=O)O [LY-27d, 4-methyl-2-(3-cyanophenyl)-1-allyloxy-1H-imidazole-5-carboxylic acid]",6.35 ± 0.469,
"Cc1nc(-c2cccc(C#N)c2)n(OCc2ccccc2)c1C(=O)O [LY-27k, 4-methyl-2-(3-cyanophenyl)-1-benzyloxy-1H-imidazole-5-carboxylic acid]",6.24 ± 0.324,
"Cc1ccc(COn2c(-c3cccc(C#N)c3)nc(C)c2C(=O)O)cc1 [LY-27s, 4-methyl-2-(3-cyanophenyl)-1-(4-methylbenzyl)oxy-1H-imidazole-5-carboxylic acid]",6.56 ± 0.357,
"Cc1nc(-c2cccc(C#N)c2)n(OCc2ccc(C#N)cc2)c1C(=O)O [LY-27y, 4-methyl-2-(3-cyanophenyl)-1-(4-cyanobenzyl)oxy-1H-imidazole-5-carboxylic acid]",3.88 ± 0.269,
"COn1c(-c2cccc(C#N)c2)nc(C)c1C(=O)Nc1ccccc1 [LY-28c, 2-(3-cyanophenyl)-1-methoxy-4-methyl-N-phenyl-1H-imidazole-5-carboxamide]",15.9 ± 1.2,
"CCOC(=O)c1[nH]c(-c2cccc(C#N)c2)nc1C [LY-29, ethyl 2-(3-cyanophenyl)-4-methyl-1H-imidazole-5-carboxylate]",,inhibition at 30 µM [1]: 32.5%
"CCCSc1nc(N[C@@H]2C[C@H]2c2ccc(F)c(F)c2)c2nnn([C@@H]3C[C@H](OCCO)[C@@H](O)[C@H]3O)c2n1 [Ticagrelor, reference compound]",7.21 ± 0.251,Wet weight of thrombus ([2]; 10 mg/kg intragastric): 5.01 ± 0.16 mg

# Second part, led by results:
IC50 [1] [µM],SMILES,further results
9.38 ± 0.565,"CCOC(=O)c1c(C)nc(-c2cccc(C#N)c2)n1OCc1ccccc1C#N [LY-26w, ethyl 1-[(2-cyanobenzyl)oxy]-2-(3-cyanophenyl)-4-methyl-1H-imidazole-5-carboxylate]",
7.99 ± 0.217,"COn1c(-c2cccc(C#N)c2)nc(C)c1C(=O)O [LY-27a, 4-methyl-2-(3-cyanophenyl)-1-methoxy-1H-imidazole-5-carboxylic acid]",
9.71 ± 0.557,"CCOn1c(-c2cccc(C#N)c2)nc(C)c1C(=O)O [LY-27b, 4-methyl-2-(3-cyanophenyl)-1-ethoxy-1H-imidazole-5-carboxylic acid]",
9.57 ± 0.226,"CCCNC(=O)c1c(C)nc(-c2cccc(C#N)c2)n1OC [LY-28a, 4-methyl-2-(3-cyanophenyl)-1-methoxy-N-propyl-1H-imidazole-5-carboxamide]",
11.2 ± 0.966,"COn1c(-c2cccc(C#N)c2)nc(C)c1C(=O)NC(C)C [LY-28b, 4-methyl-2-(3-cyanophenyl)-1-methoxy-N-isopropyl-1H-imidazole-5-carboxamide]",
22.1 ± 0.703,"CCOC(=O)c1c(C)nc(-c2cccc(C#N)c2)n1C [LY-30a, ethyl 2-(3-cyanophenyl)-1,4-dimethyl-1H-imidazole-5-carboxylate]",
